Laboratory results published in ChEMBL document CHEMBL1156044, “Novel pyridine derivatives as potent and selective CB2 cannabinoid receptor agonists” (Bioorg Med Chem Lett, 2009).

Assays:
Cannabinoid receptor 2 [1] = target: T1, Cannabinoid receptor 2 (Homo sapiens, UniProt P34972); experiment: Displacement of [3H][…] from human cloned CB2 receptor after 60 mins by scintillation spectroscopy
[2] = Metabolic stability in human liver microsomes assessed as compound remaining at […] after 30 mins; format: ADME, Microsome; conditions: read-out: Stability
Homo sapiens = organism: Homo sapiens; experiment: Selectivity ratio of Ki for human cloned CB1 receptor to Ki for human cloned CB2 receptor
Cannabinoid receptor 1 [3] = target: T2, Cannabinoid receptor 1 (Homo sapiens, UniProt P21554); experiment: Displacement of [3H][…] from human cloned CB1 receptor after 120 mins by scintillation spectroscopy
T2 sequence (P21554 whole entry): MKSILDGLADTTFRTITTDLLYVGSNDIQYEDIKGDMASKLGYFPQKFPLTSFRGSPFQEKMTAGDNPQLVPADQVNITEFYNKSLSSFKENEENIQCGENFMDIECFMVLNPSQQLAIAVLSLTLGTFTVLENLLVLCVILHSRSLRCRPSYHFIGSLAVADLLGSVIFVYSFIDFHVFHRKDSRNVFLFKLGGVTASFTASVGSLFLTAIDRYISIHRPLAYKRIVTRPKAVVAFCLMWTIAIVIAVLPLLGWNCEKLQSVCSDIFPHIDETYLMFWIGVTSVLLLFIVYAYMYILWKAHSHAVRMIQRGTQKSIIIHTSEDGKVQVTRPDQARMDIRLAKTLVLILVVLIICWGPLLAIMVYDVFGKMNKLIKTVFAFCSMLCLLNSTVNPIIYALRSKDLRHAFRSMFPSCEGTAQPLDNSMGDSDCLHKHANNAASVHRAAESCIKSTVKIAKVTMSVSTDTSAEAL

Cannabinoid receptor 2 [4] = target: T3, Cannabinoid receptor 2 (Rattus norvegicus, UniProt Q9QZN9); experiment: Agonist activity at CB2 receptor in rat cerebellar membrane assessed as WIN-55212-2-stimulated [35S]GTPgammaS binding after 6 hrs by scintillation spectrometry; format: functional, cell membranes, Cerebellum
T3 sequence (Q9QZN9 whole entry): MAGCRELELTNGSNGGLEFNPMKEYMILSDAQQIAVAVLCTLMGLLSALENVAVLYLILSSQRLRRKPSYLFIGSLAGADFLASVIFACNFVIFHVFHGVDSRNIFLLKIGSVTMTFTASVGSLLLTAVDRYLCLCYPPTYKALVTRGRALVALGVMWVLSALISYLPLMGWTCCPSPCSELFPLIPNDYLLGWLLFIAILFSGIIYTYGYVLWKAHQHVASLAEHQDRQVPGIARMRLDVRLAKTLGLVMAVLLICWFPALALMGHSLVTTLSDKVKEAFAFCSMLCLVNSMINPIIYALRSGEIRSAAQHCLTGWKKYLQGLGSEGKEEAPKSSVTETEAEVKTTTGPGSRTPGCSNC

[5] = Metabolic stability in rat liver microsomes assessed as compound remaining at […] after 30 mins; format: ADME, Microsome; conditions: read-out: Stability
Cannabinoid receptor 1 [6] = target: T2, Cannabinoid receptor 1; experiment: Inhibition of [3H][…] binding to human cloned CB1 receptor at 10 uM after 120 mins by scintillation spectroscopy
Cannabinoid receptor 2 [7] = target: T1, Cannabinoid receptor 2; experiment: Inhibition of [3H][…] binding to human cloned CB2 receptor at 10 uM after 60 mins by scintillation spectroscopy
[8] = Oral bioavailability in Sprague-Dawley rat at 10 mg/kg administered as single dose; format: ADME, organism-based; conditions: in vivo
[9] = AUC (0 to infinity) in Sprague-Dawley rat at 10 mg/kg, po administered as single dose; format: ADME, organism-based; set-up: time infinity, dose 10 mg/kg, route oral; conditions: plasma
[10] = Cmax in Sprague-Dawley rat at 10 mg/kg, po administered as single dose; format: ADME, organism-based; set-up: dose 10 mg/kg, route oral; conditions: in vivo
[11] = Tmax in Sprague-Dawley rat at 10 mg/kg, po administered as single dose; format: ADME, organism-based; set-up: dose 10 mg/kg, route oral; conditions: in vivo
[12] = Half life in Beagle dog at 10 mg/kg, po administered as single dose; format: ADME, organism-based, Canis lupus familiaris; set-up: dose 10 mg/kg, route oral; conditions: in vivo
Canis familiaris [13] = experiment: Area under curve (0 to infinity) in Beagle dog at 1 mg/kg, iv administered as single dose; format: ADME, organism-based, Canis lupus familiaris; set-up: time infinity, dose 1 mg/kg, route intravenous; conditions: in vivo
[14] = Cmax in Beagle dog at 10 mg/kg, po administered as single dose; format: ADME, organism-based, Canis lupus familiaris; set-up: dose 10 mg/kg, route oral; conditions: in vivo
Canis familiaris [15] = experiment: Oral bioavailability in Beagle dog at 10 mg/kg, po administered as single dose; format: ADME, organism-based, Canis lupus familiaris; conditions: in vivo
[16] = Tmax in Beagle dog at 10 mg/kg, po administered as single dose; format: ADME, organism-based, Canis lupus familiaris; set-up: dose 10 mg/kg, route oral; conditions: in vivo
[17] = Volume of distribution at steady state in Beagle dog at 1 mg/kg, iv administered as single dose; format: ADME, organism-based, Canis lupus familiaris; set-up: dose 1 mg/kg, route intravenous; conditions: in vivo, read-out: Vdss
[18] = Half life in Sprague-Dawley rat at 10 mg/kg, po administered as single dose; format: ADME, organism-based; set-up: dose 10 mg/kg, route oral; conditions: in vivo
[19] = Systemic plasma clearance in Sprague-Dawley rat at 1 mg/kg, iv administered as single dose; format: ADME, organism-based; set-up: dose 1 mg/kg, route intravenous
[20] = Systemic plasma clearance in Beagle dog at 1 mg/kg, iv administered as single dose; format: ADME, organism-based, Canis lupus familiaris; set-up: dose 1 mg/kg, route intravenous
[21] = Volume of distribution at steady state in Sprague-Dawley rat at 1 mg/kg, iv administered as single dose; format: ADME, organism-based; set-up: dose 1 mg/kg, route intravenous; conditions: in vivo, read-out: Vdss
[22] = Half life in Sprague-Dawley rat at 1 mg/kg, iv administered as single dose; format: ADME, organism-based; set-up: dose 1 mg/kg, route intravenous; conditions: in vivo
[23] = Half life in Beagle dog at 1 mg/kg, iv administered as single dose; format: ADME, organism-based, Canis lupus familiaris; set-up: dose 1 mg/kg, route intravenous; conditions: in vivo
Canis familiaris [24] = experiment: AUC (0 to infinity) in Beagle dog at 10 mg/kg, po administered as single dose; format: ADME, organism-based, Canis lupus familiaris, Plasma; set-up: time infinity, dose 10 mg/kg, route oral; conditions: in vivo
Rattus norvegicus = experiment: Antiallodynic activity against neuropathic pain in L5 spinal nerve ligated rat model assessed as reduction of allodynia at 100 mg/kg, po administered 9 days after surgery relative to control; format: functional; set-up: scale not given: the % may be the effect or the level left
[25] = AUC (0 to infinity) in Sprague-Dawley rat at 1 mg/kg, iv administered as single dose; format: ADME, organism-based; set-up: time infinity, dose 1 mg/kg, route intravenous; conditions: plasma

T1 sequence (P34972 whole entry): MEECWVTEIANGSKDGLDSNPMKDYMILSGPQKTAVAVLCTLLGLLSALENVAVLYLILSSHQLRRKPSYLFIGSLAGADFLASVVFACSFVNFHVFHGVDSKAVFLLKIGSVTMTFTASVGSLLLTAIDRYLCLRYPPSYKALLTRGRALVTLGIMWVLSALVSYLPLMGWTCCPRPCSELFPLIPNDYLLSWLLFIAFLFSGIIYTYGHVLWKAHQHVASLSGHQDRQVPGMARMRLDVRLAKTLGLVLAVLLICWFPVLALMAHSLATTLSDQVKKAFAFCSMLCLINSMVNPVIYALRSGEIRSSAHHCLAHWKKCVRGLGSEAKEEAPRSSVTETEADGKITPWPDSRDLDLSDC

| Compound | Ki (Cannabinoid receptor 2 [1]) [nM] | remaining at 0.5 h [2] [%] | Ratio Ki (Homo sapiens) | Ki (Cannabinoid receptor 1 [3]) [nM] | EC50 (Cannabinoid receptor 2 [4]) [nM] | remaining at 0.5 h [5] [%] | inhibition (Cannabinoid receptor 1 [6]) [%] | further results |
| --- | --- | --- | --- | --- | --- | --- | --- | --- |
| CCC1(C(=O)Nc2cc(CN3CCOCC3)c(C)cn2)CCCC1 | 13 | 12 | 85 | 1100 | 13 |  |  |  |
| Cc1cnc(NC(=O)C2(C)CCCCC2C)cc1CN1CCOCC1 (centres undefined) | 1.9 | 1 | 1300 | 2500 | 2.8 | 0 |  |  |
| CCC1(C(=O)Nc2cc(CN3CCOCC3)c(C)cn2)CCCCC1 | 7 | 0 |  |  | 8.8 | 0 | 36 |  |
| CCC(C)(C)C(=O)Nc1cnc(C)c(CN2CCOCC2)c1 |  |  |  |  |  |  | 4 | inhibition (Cannabinoid receptor 2 [7]): 46% |
| CCC(C)(C)C(=O)Nc1cc(CN2CCOCC2)c(N)cn1 | 870 |  |  |  |  |  | 10 |  |
| CCC(C)(C)C(=O)Nc1ccc(C)c(CN2CCOCC2)c1 |  |  |  |  |  | 2.2 | 4 |  |
| CCC(C)(C)C(=O)Nc1cc(CN2CCOCC2)c(C#N)cn1 | 100 |  |  |  | 200 |  | 11 |  |
| CCC(C)(C)C(=O)Nc1cc(CN2CCOCC2)cc(C)n1 | 67 |  |  |  | 260 |  | 0 |  |
| CCC(C)(C)C(=O)Nc1cc(CN2CCOCC2)c(C)cc1C |  |  |  |  |  | 68 | 18 |  |
| CCC(C)(C)C(=O)Nc1ccc(C)c(CN2CCOCC2)n1 | 1800 |  |  |  |  |  | 28 |  |
| CCCC(C)(C)C(=O)Nc1cc(CN2CCOCC2)c(C)cn1 | 5.3 | 15 | 330 | 1800 | 4.1 |  |  |  |
| CCC1(C(=O)Nc2cc(CN3CCOCC3)c(C)cn2)CCC1 | 45 | 51 |  |  | 140 | 48 | 13 |  |
| CCc1cnc(NC(=O)C(C)(C)CC)cc1CN1CCOCC1 | 7.9 | 34 | 550 | 4300 | 9.6 | 29 |  |  |
| CCC1(C(=O)Nc2cc(CN3CCOCC3)c(C)cn2)CC1 | 63 |  |  |  | 62 |  | 25 |  |
| CCC(C)(C)C(=O)Nc1cc(CN2CCOCC2)c(C)cn1 | 24 | 64 | 160 | 3800 | 41 | 43 |  | bioavailability [8]: 57%; AUC(0-inf) [9]: 893 ng·h/mL; Cmax [10]: 185 ng/mL; Tmax [11]: 2 h; half-life [12]: 1.1 h; AUC (Canis familiaris [13]): 1127 ng·h/mL; Cmax [14]: 535 ng/mL; F (Canis familiaris [15]): 29%; Tmax [16]: 0.5 h; Vd [17]: 0.6 L/kg; half-life [18]: 2.1 h; clearance [19]: 96.7 mL/min/kg; clearance [20]: 15 mL/min/kg; Vd [21]: 3.5 L/kg; half-life [22]: 0.5 h; half-life [23]: 1.4 h; AUC (Canis familiaris [24]): 977 ng·h/mL; Activity (Rattus norvegicus): 271%; AUC(0-inf) [25]: 158 ng·h/mL |
| Cc1cnc(NC(=O)C(C)(C)C)cc1CN1CCOCC1 | 81 |  |  |  | 70 |  | 37 |  |
